The supplement of paper PMC10307832

Key:
Experiment in all cases: relative viability (nuclei count vs DMSO), 5 days (fraction); higher = more cells survive
[1] = compound: C#Cc1cccc(Nc2ncnc3cc(OCCOC)c(OCCOC)cc23)c1 [Erlotinib] + Cc1cc(Nc2cc(N3CCN(C)CC3)nc(Sc3ccc(NC(=O)C4CC4)cc3)n2)n[nH]1 [Tozasertib] (partner 0.1 µM)
How it was run: (§1)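 Medians of duplicate plates are given as relative viability. That measure is the nuclei count in treated wells divided by the count in vehicle wells. Counts were taken on 4× images of lung cancer cell lines in 1536-well plates, 5 days after pin-tool dosing the day after seeding with one drug alone or a fixed anchor-drug dose plus five library-drug doses (not always all listed) in √10 steps.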

[2] = compound: O=C(Nc1c[nH]nc1-c1nc2ccc(CN3CCOCC3)cc2[nH]1)NC1CC1 [AT9283] + CS(=O)(=O)CCNCc1ccc(-c2ccc3ncnc(Nc4ccc(OCc5cccc(F)c5)c(Cl)c4)c3c2)o1 [Lapatinib] (partner 2 µM)
How it was run: as §1

[3] = compound: C#Cc1cccc(Nc2ncnc3cc(OCCOC)c(OCCOC)cc23)c1 [Erlotinib] + Nc1ncn([C@H]2C[C@H](O)[C@@H](CO)O2)c(=O)n1 [Decitabine] (partner 2 µM)
How it was run: as §1

[4] = compound: C#Cc1cccc(Nc2ncnc3cc(OCCOC)c(OCCOC)cc23)c1 [Erlotinib] + O=C(CCCCCCC(=O)Nc1ccccc1)NO [Vorinostat] (partner 1 µM)
How it was run: as §1

[5] = compound: C#Cc1cccc(Nc2ncnc3cc(OCCOC)c(OCCOC)cc23)c1 [Erlotinib] + N=C(N)NC(=N)NCCc1ccccc1 [Phenformin] (partner 250 µM)
How it was run: as §1

Cell Line	relative viability ([1]; first compound 0.02 µM)	relative viability ([1]; first compound 0.2 µM)	relative viability ([1]; first compound 0.6325 µM)	relative viability ([1]; first compound 2 µM)	relative viability ([2]; first compound 0.003 µM)	relative viability ([2]; first compound 0.03 µM)	relative viability ([2]; first compound 0.09487 µM)	relative viability ([2]; first compound 0.3 µM)	relative viability ([3]; first compound 0.2 µM)	relative viability ([3]; first compound 0.6325 µM)	relative viability ([3]; first compound 2 µM)	relative viability ([4]; first compound 0.02 µM)	relative viability ([4]; first compound 0.2 µM)	relative viability ([4]; first compound 0.6325 µM)	relative viability ([4]; first compound 2 µM)	relative viability ([5]; first compound 0.02 µM)	relative viability ([5]; first compound 0.2 µM)	relative viability ([5]; first compound 0.6325 µM)	relative viability ([5]; first compound 2 µM)	relative viability ([3]; first compound 0.02 µM)
SW 1573	0.183	0.197	0.156	0.226	1.15	0.494	0.188	0.244	0.511	0.495	0.576	0.652	0.605	0.824	0.405	0.377	0.412	0.312	0.372	
NCI-H460	0.44	0.191	0.109	0.0585	1.05	0.0247	0.0158	0.0301	0.433	0.505	0.47	0.832	0.734	0.969	0.601	0.524	0.512	0.541	0.466	0.508
EMC-BAC-2	0.279	0.345	0.32	0.25	0.875	0.599	0.229	0.225	0.882	0.951	0.82		0.543	0.524	0.446	0.578	0.571	0.559	0.502	
HCC-44	1.18	0.421	1.04	0.711	0.922	0.641	0.23	0.188	0.972		1	1.21	1.13	1.13	1.16	0.239	0.162	0.22	0.165	1
PC-3 [JPC-3]	0.825	0.355	0.331	0.274	0.444	0.436	0.422	0.304	0.446	0.429	0.431		0.441	0.351	0.362	0.445	0.367	0.268	0.291	0.842
LXF-289	0.195	0.218	0.208	0.117	0.901	0.691	0.163	0.135	0.398	0.363	0.383	0.824	0.762	0.66	0.758	0.54		0.496	0.476	0.448
NCI-H2126	0.841	0.691	0.674	0.481	0.748	0.737	0.66	0.296	0.537	0.437	0.493	0.688	0.529	0.438	0.416	0.534	0.464	0.489	0.41	0.569
BEN	0.593	0.462	0.468	0.436	0.582	0.546	0.158	0.243	0.72	0.841	0.66	0.66	0.523	0.637	0.547	0.276	0.248	0.273	0.269	0.711
NCI-H3122	0.489	0.444	0.44	0.297	1.07	0.964	0.446	0.328	0.402	0.443	0.386	0.93	1.14	1.05	0.953	0.361	0.388	0.392	0.377	0.533
